Laboratory results taken from doi:10.1101/2024.11.09.622805v1 (bioRxiv, 2024).

Legend:
HT-22 cells = format: cell-based, mouse
[1] = stated in discussion, no reference given; cited from earlier work
[2] = system: SNAP-25, Syntaxin-1A, AT1A3; assay: Immunocytochemistry of porosome proteins in Alzheimer's neurons; format: cell-based, mouse; settings: Alzheimer's neurons WT-APP (Aβ)

## O=c1cc(-c2ccc(O)cc2)oc2cc(O)cc(O)c12 [Apigenin]
HT-22 cells; AD neurons, peptide and Apigenin combined
  mitoSOX, peptide plus Apigenin: near normal levels
HT-22 cells; HT-22, Apigenin 5 or 10 μM with DA1 1 μM, Aβ1–42 10 μM 12 h
  mitoSOX, effect of Apigenin: not much change
[1]
  passage through the blood-brain barrier: can pass through the blood-brain barrier
[2]
  immunoreactivity of SNAP-25, Syntaxin-1A and AT1A3, single agent: Modest increase
